Assay results as given in patent EP0423240B1, “MODULATION OF VIRUS-HOST CELL INTERACTIONS USING CYCLIC OLIGOSACCHARIDES” (THE TRUSTEES OF THE UNIVERSITY OF PENNSYLVANIA, priority 1988, dated 1990).

How the values were obtained:
HIV-2 = HIV-2 induced syncytia assay, ROD-2 infected cells cocultured with H9 target cells; format: cell-based; parameters: key to number of syncytia formed: 4 being multiple syncytia widely distributed; 0 indicating no syncytia observed; s=small; m=medium; L=large syncytia; details: for number of syncytia formed: HIV-2, number and size of syncytia
Procedure: For the assay of HIV-1 fusion, Supt T1 cells were used as target cells. They fuse rapidly when cocultured with HIV-1 (H9/IIIb) producing cell lines. For the assay of HIV-2 mediated cell fusion, H9 cells were used as target cells. They fuse rapidly when cocultured with HIV-2 (CEMROD-2) producing cell lines. HIV infected cells were plated in 96 well plates (10⁴ cells/well in RPMI 1640 + 10% FCS) and incubated with or without dilution of compounds for 30 minutes at 37°C. Target cells are then added 5 x 10⁵/well and the number of syncytia are qualitatively determined after the incubation periods described in the text. […]

HIV = experiment: Reverse transcriptase assay after prolonged culture (6 days with compound, further 10 days in fresh media); format: cell-based; details: then 10 days in fresh media
Procedure: (§1) Figure 6 compares the effects of dextran polysulfate and substituted β-cyclodextrins on HIV infectivity. In (A) degree of syncytia inhibition is shown on the ordinate for each compound added. SUL = 600 µM β-CD-14S, AL = 600 µM unsubstituted β-CD, Pro = 600 µM propoxylated β-CD, 2MET = 300 µM methoxylated β-CD, DS5 = 600 µM dextran sulfate 5,000, DS500 = 600 µM dextran sulfate 500,000. Results for each of 3 time points are shown. In (B) similar results utilizing reverse transcriptase assays are shown. Infectious virus particles were incubated in the presence of sulfated β-cyclodextrin (lane 1), dextran sulfate 5000 (lane 2) or media (lane 3) for 6 days at which time cells were resuspended in fresh media and allowed to incubate a further 10 days before being harvested. Reverse transcriptase activity was assayed as described in Section 6.1, infra. 1/2 dilutions of the compound added are shown from bottom (highest concentration at 2.5 mM) to top (lowest concentration).
Virus infected cells were pelleted by centrifugation and 50 µl of culture suprenatant was collected from each well for assay. Culture supernatant (25 µl) was plated in 96 well round bottomed plates and 50 µl of transcriptase cocktail was added to each well. […] After incubation samples were spotted onto Whatman DEAE-81 paper, washed and analyzed by counting or direct autoradiography. […]

HIV-1 [1] = experiment: HIV-induced syncytia formation over time, comparison with dextran sulfates; format: cell-based; details: during the culture period (48 hours)
Procedure: as §1
For the assay of HIV-1 fusion, Supt T1 cells were used as target cells. They fuse rapidly when cocultured with HIV-1 (H9/IIIb) producing cell lines. For the assay of HIV-2 mediated cell fusion, H9 cells were used as target cells. […] Target cells are then added 5 x 10⁵/well and the number of syncytia are qualitatively determined after the incubation periods described in the text.

[2] = test system: HTLV-IIIb cell free virus; experiment: Reverse transcriptase assay of HIV infectivity, cell free virus on target cells, 10 day incubation; format: cell-based, HIV-1
Procedure: Figure 2 illustrates the effects of cyclodextrin and cyclodextrin derivatives on HIV infectivity as determined by reverse transcriptase activity. Samples assayed are (A) untreated control cells, (B) β-cyclodextrin unsubstituted ring, (C) partially sulfated β-cyclodextrin ring, (D) propylated β-cyclodextrin ring, (E) sulfated β-cyclodextrin ring, and (F) methylated β-cyclodextrin ring. Numbers indicate 1/2 dilutions of test compounds with 1 = 2.5 mM concentration of compound.
Virus infected cells were pelleted by centrifugation and 50 µl of culture suprenatant was collected from each well for assay. Culture supernatant (25 µl) was plated in 96 well round bottomed plates and 50 µl of transcriptase cocktail was added to each well. Cocktail is 50 mM Tris-HC1, pH 8.0, 20 mM DTT, 0.6 mM MnC1₂, 60 mM NaC1, 0.05% NP-40, 5 µg/ml dt (oligodeoxythymidilic acid), 10 µg/ml poly A (polyriboadenylic acid), 10 µM dTTP, 1 Ci/mm ³²P dTTP. Plates were then incubated for 60 minutes at 37°C. After incubation samples were spotted onto Whatman DEAE-81 paper, washed and analyzed by counting or direct autoradiography.
The ability of cyclodextrins to inhibit HIV infection was assessed in vitro utilizing reverse transcriptase assays as described Section 6.1.2, supra. HTLV-IIIb cell free virus stocks were inoculated onto target cells in the presence or absence of the synthetic compounds.

HIV-1 [3] = experiment: Structural studies: electron microscopy of virus particle production by infected cells; format: cell-based
Procedure: Virus infected cells were washed and resuspended in fresh media in the presence or absence of test compounds. After a 48 hour culture period the cultures were pelleted and fixed in 1% glutaraldehyde, 0.1 M Cacodylate-HC1, pH 7.3 followed by OsO₄, and embedded in spur resin for examination of these sections by electron microscopy.
To further address this point, we analyzed virus particle production in the presence of specifically substituted cyclodextrins by electron microscopic examination. Virus infected cells were washed and resuspended in fresh media in the presence or absence of test compounds. After a 48 hour culture period, the cultures were pelleted and fixed in 1% glutaraldehyde, 0.1 M Cacodylate-HC1, pH 7.3 followed by OsO₄ and embedded in spur resin for examination of thin sections.

HIV-1 [4] = experiment: HIV-1 induced syncytia assay, IIIb infected H9 cells cocultured with Supt-1 target cells; format: cell-based; parameters: key to number of syncytia formed: 4 being multiple syncytia widely distributed; 0 indicating no syncytia observed; s=small; m=medium; L=large syncytia; details: for number of syncytia formed: HIV-1, number and size of syncytia
Procedure: For the assay of HIV-1 fusion, Supt T1 cells were used as target cells. They fuse rapidly when cocultured with HIV-1 (H9/IIIb) producing cell lines. For the assay of HIV-2 mediated cell fusion, H9 cells were used as target cells. They fuse rapidly when cocultured with HIV-2 (CEMROD-2) producing cell lines. HIV infected cells were plated in 96 well plates (10⁴ cells/well in RPMI 1640 + 10% FCS) and incubated with or without dilution of compounds for 30 minutes at 37°C. Target cells are then added 5 x 10⁵/well and the number of syncytia are qualitatively determined after the incubation periods described in the text.
In a series of additional experiments, analysis of HIV-1 induced syncytia was performed by coculturing H9 cells infected with the IIIb isolate with uninfected Supt-1 (a human CD4+ T cell line) cells as targets. […]

beta-cyclodextrin tetradecasulfate [Beta-CD-14S]
number of syncytia formed (HIV-2; 1.3 mM): 0
number of syncytia formed (HIV-2; 2.5 mM): 0
number of syncytia formed (HIV-2; .01 mM): 4 L
number of syncytia formed (HIV-2; .02 mM): 4 L
number of syncytia formed (HIV-2; .04 mM): 4 L
number of syncytia formed (HIV-2; .08 mM): 3 L
number of syncytia formed (HIV-2; .16 mM): 2m
number of syncytia formed (HIV-2; .32 mM): 1 s
number of syncytia formed (HIV-2; .63 mM): 0
inhibition of syncytia formation mediated by ROD-2 (HIV-2; result in words): inhibited syncytia formation
anti-viral activity (reverse transcriptase activity) (HIV): significant anti-viral activity even after prolonged periods of tissue culture
anti-syncytial activity (HIV-1 [1]): remained unchanged
inhibition of viral infectivity (reverse transcriptase activity) ([2]; 1/2 dilutions from 2.5 mM, result in words): extremely effective
concentrations at which some reverse transcriptase activity was apparent ([2]; dilution 4): ≤ 320 µM
concentrations at which reverse transcriptase activity was dramatically inhibited ([2]; dilution 6): ≥ 80 µM
morphology of viral particles produced (HIV-1 [3]; 300 µM, 48 hour culture): typical of the lentivirus family
morphology of the viral particles produced (HIV-1 [3]; infected H9 cells, 1 mM): mature morphology
number of syncytia formed (HIV-1 [4]; 1.3 mM): 0
number of syncytia formed (HIV-1 [4]; 2.5 mM): 0
number of syncytia formed (HIV-1 [4]; .01 mM): 4 L
number of syncytia formed (HIV-1 [4]; .02 mM): 4 L
number of syncytia formed (HIV-1 [4]; .04 mM): 3 L
number of syncytia formed (HIV-1 [4]; .08 mM): 2m
number of syncytia formed (HIV-1 [4]; .16 mM): 1 s
number of syncytia formed (HIV-1 [4]; .32 mM): 0
number of syncytia formed (HIV-1 [4]; .63 mM): 0
inhibiting syncytia formation of HIV-1 (HIV-1 [4]; result in words): extremely high antisyncytia activity
